Measurements from patent US20160067347A1, “APJ RECEPTOR AGONISTS AND USES THEREOF” (AMGEN INC., priority 2012, published 2016).
Where no end group is shown, it is not given here. [ ]: non-standard residue; d: D form. Oic = O=C(O)[C@@H]1C[C@@H]2CCCC[C@@H]2N1; Phe(4-Cl) = N[C@@H](Cc1ccc(Cl)cc1)C(=O)O; hArg = N=C(N)NCCCC[C@H](N)C(=O)O; Cha = N[C@@H](CC1CCCCC1)C(=O)O; 20K‑mPEG = 20 kDa methoxy-PEG; 40K‑mPEG = 40 kDa methoxy-PEG; Nle = CCCC[C@H](N)C(=O)O

Assays:
[1] = background statement; cited from earlier work
in vitro = conditions: rat, plasma
Method: Apelin peptides were spiked into freshly prepared mouse, rat, dog and human EDTA plasma to a final concentration of 5 μM. The plasma samples were then incubated at 37° C. over a period of 4 hr. Up to 8 time points were sampled to facilitate estimation of in vitro half life in plasma matrices. In a typical experiment, aliquot of 100 μL of plasma sample was taken from the incubation vial, followed by addition of 300 μL of MeOH containing internal standard. The quenched sample was centrifuged at 5500 g for 15 min after 15 min vortex in room temperature. The supernatant was then analyzed by high resolution LC-MS.

[2] = In vitro plasma stability of apelin peptides (Table 15; plasma species not given); format: in vitro ADME; conditions: 5 μM in plasma, 37° C.
Source text: (metabolite data not shown).

isolated cardiomyocyctes = conditions: isolated cardiomyocytes; Barnes et al.; cited from earlier work
rat APJ receptor [3] = biological target: T1, rat APJ receptor (Rattus norvegicus, UniProt Q9JHG3); assay: [35S]GTPγS assay, membranes from stable cell lines, rat APJ; format: biochemical; conditions: FIG. 10; effect of PEG size (20 kDa vs 40 kDa)
T1 construct: expressed in transfected cells; CHO is named only for the cAMP assay
T1 sequence (Q9JHG3 1-377): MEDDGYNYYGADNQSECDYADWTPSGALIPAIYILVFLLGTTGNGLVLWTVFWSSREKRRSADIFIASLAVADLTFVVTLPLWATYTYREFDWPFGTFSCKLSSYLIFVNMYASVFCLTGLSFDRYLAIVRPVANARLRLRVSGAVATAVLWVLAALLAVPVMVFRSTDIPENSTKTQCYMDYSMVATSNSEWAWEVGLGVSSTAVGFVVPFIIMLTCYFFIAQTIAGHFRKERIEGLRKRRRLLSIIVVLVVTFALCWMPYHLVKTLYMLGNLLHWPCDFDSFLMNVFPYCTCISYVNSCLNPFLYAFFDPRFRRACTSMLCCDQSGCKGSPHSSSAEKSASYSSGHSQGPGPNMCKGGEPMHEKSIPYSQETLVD
Method: To assay for GTP, membranes were prepared from stable cell lines and used to determine the efficacy/potency of the modified peptides. The optimal experimental conditions for the concentrations of GDP, MgCl2 and NaCl in the assay buffer were initially determined. The membranes were incubated with modified peptides in the assay buffer. The reaction was initiated by addition of [^35S] GTPγS in the absence or presence of peptides and incubated at room temperature for 90 min. […] Bound [^35S] GTPγS was separated from free radiolabel by filtration. The filter bound radioactivity was determined by liquid scintillation counting.
A series of PEGylated peptides were prepared and screened in vitro to explore the effects of PEG size and peptide valency on potency and efficacy in the GTPγS assay. In the assay 20 kDA and 40 kDA PEG were compared (FIG. 10).
Additionally mono- and multivalent bis, and tetrakis-peptide conjugated PEGS were prepared to explore peptide valency. […]

[4] = tested on: isolated Langendorff rat heart; assay: Langendorff isolated rat heart, hemodynamic cardiac function; conditions: control rats, FIGS. 7 and 8
Source text: To assess the hemodynamic cardiac function of the peptides a Langendorff isolated heart system was used. The isolated heart from rat provides broad spectrum of measurements that can include biochemical, metabolic, morphological and physiological indices. The limitations/advantages of the method include absence of neurohormonal influences, neural regulation and high coronary flows. Such limitations, however, are offset by the ability to study direct cardiac effects without systemic circulation and a host of peripheral interactions.
The reproducibility and accuracy of measurements and relatively low costs over in vivo studies for profiling drugs outweigh any limitations of this method. Therefore, this method provides excellent dose-response relationship and sheds critical insight into the pharmacological and physiological properties of the molecules of interest.
The animals were anesthetized upon administration of 50-100 mg/kg dose of sodium pentobarbital for rat via the intraperitoneal route. The heart was excised and gently cradled between fingers to avoid injury followed by lifting slightly before incising the aorta, vena cava and pulmonary vessels Immediately after excision of the heart with aorta, the heart was mounted onto the cannula in the Langendorff apparatus via the aorta. The heart was perfused with modified oxygenated Krebs-Henseleit buffer pH7.5 and equilibrated with 95% O2/5% CO2 at 37° C. The perfusion was performed at a constant flow of 10 ml/min and paced at 300 bpm. The pressure was measured through a pressure sensing balloon catheter inserted in the LV cavity. The intrinsic inotropy (force of muscle contraction) and lusitropy (cardiac relaxation) effects of the heart were assessed by dp/dtmax and dp/dtmin.
These figures illustrate improvement in both systolic and diastolic function of normal hearts with peptides of SEQ ID NOs: 23 and 24.

human APJ = biological target: T2, human APJ (Homo sapiens, UniProt P35414); assay: cAMP assay, stable CHO cell line expressing human APJ; format: cell-based; conditions: FIG. 5; cAMP seen with either human or rat APJ stable cell lines
T2 construct: expressed in transfected cells
T2 sequence (P35414 1-380): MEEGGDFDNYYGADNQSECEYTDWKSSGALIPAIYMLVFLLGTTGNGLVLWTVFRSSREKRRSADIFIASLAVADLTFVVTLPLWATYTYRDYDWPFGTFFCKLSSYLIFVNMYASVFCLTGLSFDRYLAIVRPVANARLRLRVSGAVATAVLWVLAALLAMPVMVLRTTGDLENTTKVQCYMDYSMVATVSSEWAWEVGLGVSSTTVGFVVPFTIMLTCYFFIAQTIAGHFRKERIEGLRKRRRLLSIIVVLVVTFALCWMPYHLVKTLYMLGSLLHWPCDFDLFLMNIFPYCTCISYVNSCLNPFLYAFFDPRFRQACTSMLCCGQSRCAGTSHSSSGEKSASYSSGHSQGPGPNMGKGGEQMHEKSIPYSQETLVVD
Method: Stable CHO cell lines expressing APJ were used for cAMP assays. The cells were incubated with stimulation buffer containing HANK's buffer, forskolin and 0.5 mM IBMX in the absence or presence of various concentrations' of peptides at 37° C. for 45 min. The cAMP level was determined using a cyclic AMP kit (DiscoverX) according to the manufacturer's instructions.

rat APJ receptor [5] = biological target: T3, rat APJ receptor (rat, UniProt Q9JHG3 1-377); assay: cell-based or functional assay
T3 sequence (looked up): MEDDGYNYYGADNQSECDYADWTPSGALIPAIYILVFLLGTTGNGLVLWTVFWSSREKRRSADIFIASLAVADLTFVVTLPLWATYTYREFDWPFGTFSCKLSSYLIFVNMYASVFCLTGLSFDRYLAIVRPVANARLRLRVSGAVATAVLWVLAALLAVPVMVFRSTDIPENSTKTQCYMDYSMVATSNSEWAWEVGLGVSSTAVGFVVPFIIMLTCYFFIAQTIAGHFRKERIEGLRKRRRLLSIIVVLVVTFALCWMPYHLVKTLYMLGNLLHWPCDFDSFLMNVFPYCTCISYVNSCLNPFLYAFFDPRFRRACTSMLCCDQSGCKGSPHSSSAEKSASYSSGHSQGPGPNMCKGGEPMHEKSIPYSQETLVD

CSCC[C@H](NC(=O)[C@@H]1CCCN1C(=O)CNC(=O)[C@H](CCCCN)NC(=O)[C@H](Cc1cnc[nH]1)NC(=O)[C@H](CO)NC(=O)[C@H](CC(C)C)NC(=O)[C@H](CCCNC(=N)N)NC(=O)[C@@H]1CCCN1C(=O)[C@H](CCCNC(=N)N)NC(=O)[C@@H](N)CCC(N)=O)C(=O)N1CCC[C@H]1C(=O)N[C@@H](Cc1ccccc1)C(=O)O [Apelin-13]
plasma half-life [1]: < 5 min | remaining at 0.25 h, 5 μM (in vitro): 0.1% | in vitro plasma stability, % at 15 minutes [2]: 0.1%

apelin
increase in sarcomere shortening (isolated cardiomyocyctes): up to 140%

3-((2-(3-(mPEG(20kDa))propylamino)-2-oxoethyl)thio)propanamide-[hArg68;Cha69;Oic74;Nle75;4-Cl-Phe77]Apelin-17(61-77) [SEQ ID NO: 24]
EC50 (rat APJ receptor [3]): 252 pM | dp/dtmax [4]: dose dependent increase | dp/dtmin [4]: decrease | systolic pressure [4]: increases | agonist activity relative to pyr apelin-13 (SEQ ID NO: 128) (human APJ): potent and act as a full agonist

3-(1-(2-(mPEG(20kDa))ethyl)-1H-1,2,3-triazol-4-yl)alanine-[hArg68;Cha69;Oic74;Nle75;4-Cl-F77]Apelin-17(61-77) [SEQ ID NO: 25]
agonist activity relative to pyr apelin-13 (SEQ ID NO: 128) (human APJ): potent and act as a full agonist

B1: Thiopropionyl(20K-mPEG)-KFRRQRP[hArg][Cha]SHKG[Oic][Nle]P[4-Cl-F] (peptide)
peptide: {20K‑mPEG-Thiopropionyl}-KFRRQRP[hArg][Cha]SHKG[Oic][Nle]P[Phe(4-Cl)]
EC50 (GTPγS assay) (rat APJ receptor [5]): 252 pM

B2: {Thiopropionyl(40K-mPEG)}KFRRQRP[hArg][Cha]SHKG[Oic][Nle]P[4-Cl-F]{FreeAcid} (peptide)
peptide: {40K‑mPEG-Thiopropionyl}-KFRRQRP[hArg][Cha]SHKG[Oic][Nle]P[Phe(4-Cl)]-OH
EC50 (GTPγS assay) (rat APJ receptor [5]): 1370 pM | potency (GTPγS assay), fold reduction relative to 20 kDA (SEQ ID NO: 24) (rat APJ receptor [5]): 5 fold
